Laboratory results as given in paper PMC6440634, “Phosphorylation of a serine/proline-rich motif in oxysterol binding protein-related protein 4L (ORP4L) regulates cholesterol and vimentin binding” (PLoS ONE, 2019).
Positions count from the first letter of the chain named.

Experiments:
Assay in all cases: specific radioligand binding in solution, Scatchard
[1] = molecular target: T1, ORP4L (Homo sapiens, UniProt Q969R2, S762D/S763D/S766D/S768D)
T1 construct: gene OSBP2; about 116 kDa on SDS-PAGE, dimer by cross-linking; residues S762SPSSPSS769 in ORD
T1 sequence (Q969R2 1-916 S762D/S763D/S766D/S768D): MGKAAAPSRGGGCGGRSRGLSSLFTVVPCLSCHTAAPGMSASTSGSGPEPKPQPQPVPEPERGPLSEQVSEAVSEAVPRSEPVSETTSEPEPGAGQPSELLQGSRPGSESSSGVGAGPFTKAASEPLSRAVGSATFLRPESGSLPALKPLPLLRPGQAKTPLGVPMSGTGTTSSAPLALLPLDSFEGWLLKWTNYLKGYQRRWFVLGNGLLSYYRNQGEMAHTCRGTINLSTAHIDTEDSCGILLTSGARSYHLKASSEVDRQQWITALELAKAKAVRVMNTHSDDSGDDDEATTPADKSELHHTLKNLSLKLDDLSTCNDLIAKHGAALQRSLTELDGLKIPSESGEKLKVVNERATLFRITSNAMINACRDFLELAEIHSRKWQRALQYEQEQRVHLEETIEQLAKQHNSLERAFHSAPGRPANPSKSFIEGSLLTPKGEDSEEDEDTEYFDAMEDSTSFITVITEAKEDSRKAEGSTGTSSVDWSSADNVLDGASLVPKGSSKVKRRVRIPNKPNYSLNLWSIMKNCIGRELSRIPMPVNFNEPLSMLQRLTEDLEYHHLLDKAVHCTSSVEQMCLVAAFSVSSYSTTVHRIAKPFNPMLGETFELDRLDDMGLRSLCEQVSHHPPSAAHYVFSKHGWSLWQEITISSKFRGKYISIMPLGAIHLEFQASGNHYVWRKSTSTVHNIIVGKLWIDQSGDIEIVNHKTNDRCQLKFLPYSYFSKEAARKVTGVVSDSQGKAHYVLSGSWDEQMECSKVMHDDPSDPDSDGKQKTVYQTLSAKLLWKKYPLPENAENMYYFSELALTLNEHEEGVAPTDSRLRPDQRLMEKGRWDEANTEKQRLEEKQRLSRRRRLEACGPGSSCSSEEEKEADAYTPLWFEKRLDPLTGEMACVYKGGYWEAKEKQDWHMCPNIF

[2] = molecular target: T2, ORP4L (Homo sapiens, UniProt Q969R2)
T2 construct: gene OSBP2; about 116 kDa on SDS-PAGE, dimer by cross-linking; residues S762SPSSPSS769 in ORD
T2 sequence (Q969R2 1-916): T1 sequence (Q969R2 1-916 S762D/S763D/S766D/S768D) with D762S, D763S, D766S, D768S

[3] = molecular target: T3, ORP4L (Homo sapiens, UniProt Q969R2, S762A/S763A/S766A/S768A)
T3 construct: gene OSBP2; about 116 kDa on SDS-PAGE, dimer by cross-linking; residues S762SPSSPSS769 in ORD
T3 sequence (Q969R2 1-916 S762A/S763A/S766A/S768A): T1 sequence (Q969R2 1-916 S762D/S763D/S766D/S768D) with D762A, D763A, D766A, D768A

Row | Compound | Kd [1] [nM] | Kd [2] [nM] | Kd [3] [nM]
1 | C[C@H](CCCC(C)(C)O)[C@H]1CC[C@H]2[C@@H]3CC=C4C[C@@H](O)CC[C@]4(C)[C@H]3CC[C@]12C [25OH] | 60 ± 18 | 45 ± 12 | 62 ± 28
2 | CC(C)CCC[C@@H](C)[C@H]1CC[C@H]2[C@@H]3CC=C4C[C@@H](O)CC[C@]4(C)[C@H]3CC[C@]12C [cholesterol] | 144 ± 43 | 160 ± 40 | 255 ± 90
